Reference: patent US20080234345A1, “METHOD FOR REDUCING OR ALLEVIATING INFLAMMATION IN THE DIGESTIVE TRACT” (Gene Logic Inc., priority 2006, published 2008)

Test system: NF-κB dependent transcription
Assay: LPS induced NF-κB dependent transcription in extracted organs of NF-κB::Luc mice (luciferase lysate assay)
Format: in vivo
Conditions: GL1001 30 mg/kg, LPS 0.5 mg/kg, vs LPS alone
Source text: For luciferase assays, organs were extracted and snap frozen in liquid nitrogen. AII tissue samples were placed in lysis buffer with inhibitors (Passive Lysis Buffer (Promega) and Complete Mini Protease Inhibitor Cocktail (Roche, Indianapolis, Ind.)), and were homogenized using a tissue homogenizer (Handishear, Hand-held homogenizer, VirTis, Gardiner, N.Y.). Tissue homogenates were centrifuged and clarified lysates were used for luminometer assays and western blots. For the luminometer assays, Luciferase Assay Substrate (Luciferase Assay System, Promega) was prepared as indicated by the manufacturer and placed in disposable cuvettes. […] Background luminescence readings were obtained and the background readings were subtracted from the luminescent data. Protein concentrations were determined using the BCA Protein Assay Kit (Pierce, Rockford, Ill.) following the manufacturer's protocols and analyzed using a VERSAmax tunable microplate reader and associated Softmax Pro version 3.1.2 software (Molecular Devices, Sunnyvale Calif.). The luminescence for each of the protein lysates was calculated as arbitrary units of light per microgram of protein. […]
GL1001 was further tested for in vivo anti-inflammatory activity by examining its effects on bacterial LPS induced NF-κB dependent transcription, in NF-κB::Luc mice. […] Luciferase signal was quantitated from several regions of interest. […]

## CC(C)C[C@H](N[C@@H](Cc1cncn1Cc1cc(Cl)cc(Cl)c1)C(=O)O)C(=O)O [GL1001, (S,S)-2-[1-carboxy-2-[3-(3,5-dichlorobenzyl)-3H-imidazol-4-yl]-ethylamino]-4-methylpentanoic acid]
  LPS induced NF-κB signaling in pancreas and uterus, or any other organ analyzed: no statistically significant decrease
  reduction of LPS induced NF-κB-dependent transcription in stomachs: about 37 fold
